Key:
Klebsiella pneumoniae = assay: Anti-infectious activity with respect to Klebsiella; format: in vivo; settings: mice, i.v. treatment 24h before 2 × 10^4 bacteria i.m.
Experimental: The survival of groups of inoculated mice under the above conditions and treated by means of the products according to the invention was followed.
The infecting dose was 2.10^4 Klebsiella; it was administered by the intramuscular route.
The administration of the tested product was carried out by the intravenous route in 0.2 ml of apyrogenic physiological solution, the controls receiving the solution alone. It was carried out 24 hours before the inoculation.
The percentage protection indicated is a difference of the percentages of survivors of the treated group with respect to the control group.

[1] = Toxicity (lethal dose 50) by parenteral administration in the adrenalectomised mouse; format: in vivo, mice
Experimental: The toxicity of the products according to the invention was investigated by parenteral administration in mice. It was observed that the toxic doses were of an order of magnitude very much higher than that of the doses at which these products manifest their activity. Thus the lethal dose 50 of the products according to the invention tested was higher than 5 mg/kg of animal in the adrenalectomised mouse, whose sensitivity to endotoxins is well-known.

[2] = system: bovine serum albumin (BSA); assay: Adjuvant character in the aqueous phase (antibody titer by passive hemagglutination); format: in vivo, Swiss mice; settings: mice, 0.5 mg BSA with 0.1 mg tested substance SC in isotonic saline, booster day 30, titer at the 36th day
Experimental: Groups of 8 Swiss mice aged two months received, by sub-cutaneous injection (SC), 0.5 mg of antigen constituted by bovine serum albumin (BSA) with 0.1 mg or without the tested substance in an isotonic saline solution. This high dose of antigen, because it is situated at the limit of the paralyzing dose with respect to the immunitary response, results, for this reason, in a weak or zero response to the antigen only in the controls: It constitutes therefore a severe criterien to establish the activity of an adjuvant substance. Thirty days later, the mice received, by the same administrative route, a booster containing 0.1 mg of the same antigen.
The antibody level was determined, six days after the booster, by passive hemagglutination using sheep's red blood corpuscles treated with formalin and covered with the antigen studied according to the method described by A. A. HIRATA and M. W. BRANDISS (J. Immunol., 100, 641-648, 1968).
The antibody titer, represented by the maximum serum dilution agglutinating a given amount of sheep corpuscles, reaches a maximum at the 36th day and is established in the following manner: […]

Ovalbumin = assay: Adjuvant character in emulsion (delayed hypersensitivity and antibodies); format: in vivo, Hartley guinea pigs; settings: guinea pigs, 50 μg in AlF emulsion with 1 mg ovalbumin; for Log2 of the hemagglutinating titer: serum day 21; for HSR (diameter of the delayed hypersensitivity reaction): skin test day 18, read 48 hours later
Experimental: The tests were carried out on batches of 6 male Hartley guinea pigs of 350 g. The administration was done by intradermal injection into the plantar pad of each of the rear paws. Ovalbumin (constituting the antigen) in the amount of 1 mg is prepared in 0.1 ml of an emulsion of saline isotonic solution, in any oily phase constituted either by the Freund imcomplete adjuvant (FIA), or by the complete adjuvant (FCA) formed by the FIA to which is added 0.1 mg of whole Mycobacterium smegmatis cells. The compound according to the invention was administered in the amount of 0.05 mg added in the emulsion containing the FIA.
Eighteen days after this immunization, possible delayed hypersensitivity reactions to the antigen were sought by injecting by the intradermal route 0.01 mg of ovalbumin in the side of the animals, and 48 hours later, the reaction of the point of injection was observed. The diameter in millimeters of the reaction thus caused was measured.
Twenty-one days after the injection, the animals were bled. […]

[3] = system: Limulus amoebocyte lysate; assay: Limulus test (endotoxic type activity); settings: gel formation after 20 minutes at 37° C.
Experimental: For this purpose, 0.1 ml of the Limulus amoebocyte lysate preparation (marketed by the MALLINCKRODT Company, at St. LOUIS, U.S.A.) was mixed with an equal volume of the tested product at various concentrations in solution in apyrogenic distilled water. The vessels used were also made apyrogenic by dry heating in the oven, at 180° C., for 2 hours.
After incubating the mixture for 20 minutes at 37° C. in tubes, the formation of gel characteristics of the presence of endotoxin was estimated.

Listeria monocytogenes = assay: Anti-infectious activity with respect to Listeria; format: in vivo; settings: mice, i.v., 1 day before infection

Structure (SMILES): CC(=O)N[C@H]1C(O)O[C@H](CO)[C@@H](O)[C@@H]1O[C@H](C)C(=O)N[C@@H](C)C(=O)N[C@H](CCC(=O)N[C@@H](C)C(=O)OCc1ccccc1)C(N)=O (stereo partly drawn) [MDP--L--Ala--benzyl--ester, Benzyl ester of N-acetyl-muramyl-L-alanyl-D-isoglutaminyl-L-alanine]
- % of protection (Klebsiella pneumoniae; dose per mouse 100): 46%
- Number of survivors at day 3 (Klebsiella pneumoniae; dose per mouse 100): 24
- Number of survivors at day 5 (Klebsiella pneumoniae; dose per mouse 100): 14
- Number of survivors at day 8 (Klebsiella pneumoniae; dose per mouse 100): 14
- lethal dose 50 [1]: higher than 5 mg/kg
- Log2 hemagglutinating titer [2]: 7.47 ± 0.89
- Log2 of the hemagglutinating titer (Ovalbumin): 12.31 ± 0.82
- HSR (diameter of the delayed hypersensitivity reaction) (Ovalbumin): 12.5 ± 3.5 millimeters

Structure (SMILES): CCCCOC(=O)[C@H](C)NC(=O)CC[C@@H](NC(=O)[C@H](C)NC(=O)[C@@H](C)O[C@H]1[C@H](O)[C@@H](CO)OC(O)[C@@H]1NC(C)=O)C(N)=O (stereo partly drawn) [MDP--L--Ala--butyl--ester, n-butyl ester of N-acetyl-muramyl-L-alanyl-D-isoglutaminyl-L-alanine]
- % of protection (Klebsiella pneumoniae; dose per mouse 100): 54%
- Number of survivors at day 3 (Klebsiella pneumoniae; dose per mouse 100): 23
- Number of survivors at day 5 (Klebsiella pneumoniae; dose per mouse 100): 18
- Number of survivors at day 8 (Klebsiella pneumoniae; dose per mouse 100): 17
- Log2 hemagglutinating titer [2]: 10.31 ± 0.49
- Log2 of the hemagglutinating titer (Ovalbumin): 13.31 ± 0.52
- HSR (diameter of the delayed hypersensitivity reaction) (Ovalbumin): 18 ± 2 millimeters

Structure (SMILES): CCCCCCCCCCNC(=O)[C@H](C)NC(=O)CC[C@@H](NC(=O)[C@H](C)NC(=O)[C@@H](C)O[C@H]1[C@H](O)[C@@H](CO)OC(O)[C@@H]1NC(C)=O)C(N)=O (stereo partly drawn) [MDP--L--Ala--decyl--amide, Decylamide of N-acetyl-muramyl-L-alanyl-D-isoglutamine-L-alanine]
- % of protection (Klebsiella pneumoniae; dose per mouse 100): 50%
- Number of survivors at day 3 (Klebsiella pneumoniae; dose per mouse 100): 21
- Number of survivors at day 5 (Klebsiella pneumoniae; dose per mouse 100): 17
- Number of survivors at day 8 (Klebsiella pneumoniae; dose per mouse 100): 16
- lethal dose 50 [1]: higher than 5 mg/kg
- Log2 hemagglutinating titer [2]: 8.64 ± 0.95
- Limulus test result (concentration of the tested product) [3]: 100 µg/mL

Structure (SMILES): CCCCCCCCCCOC(=O)[C@H](C)NC(=O)CC[C@@H](NC(=O)[C@H](C)NC(=O)[C@@H](C)O[C@H]1[C@H](O)[C@@H](CO)OC(O)[C@@H]1NC(C)=O)C(N)=O (stereo partly drawn) [MDP--L--Ala--decyl--ester, Decyl ester of N-acetyl-muramyl-L-alanyl-D-isoglutaminyl-L-alanine]
- % of protection (Klebsiella pneumoniae; dose per mouse 100): 44%
- Number of survivors at day 3 (Klebsiella pneumoniae; dose per mouse 100): 30
- Number of survivors at day 5 (Klebsiella pneumoniae; dose per mouse 100): 22
- Number of survivors at day 8 (Klebsiella pneumoniae; dose per mouse 100): 22
- % of protection (Listeria monocytogenes; 10 μg per mouse): 50%
- Number of surviving animals at day 5 (Listeria monocytogenes; 10 μg per mouse): 7
- Number of surviving animals at day 10 (Listeria monocytogenes; 10 μg per mouse): 5
- % of protection (Listeria monocytogenes; 100 μg per mouse): 38%
- Number of surviving animals at day 5 (Listeria monocytogenes; 100 μg per mouse): 19
- Number of surviving animals at day 10 (Listeria monocytogenes; 100 μg per mouse): 11
- % of protection (Listeria monocytogenes; 300 μg per mouse): 23%
- Number of surviving animals at day 5 (Listeria monocytogenes; 300 μg per mouse): 11
- Number of surviving animals at day 10 (Listeria monocytogenes; 300 μg per mouse): 5
- Log2 hemagglutinating titer [2]: 6.23 ± 1.23
- Limulus test result (concentration of the tested product) [3]: 100 µg/mL

Structure (SMILES): CCCCCCCCCCCCCCCOC(=O)[C@H](C)NC(=O)CC[C@@H](NC(=O)[C@H](C)NC(=O)[C@@H](C)O[C@H]1[C@H](O)[C@@H](CO)OC(O)[C@@H]1NC(C)=O)C(N)=O (stereo partly drawn) [MDP--L--Ala--penta--decyl--ester, Pentadecyl ester of N-acetyl-muramyl-L-alanyl-D-isoglutaminyl-L-alanine]
- % of protection (Klebsiella pneumoniae; dose per mouse 100): 50%
- Number of survivors at day 3 (Klebsiella pneumoniae; dose per mouse 100): 24
- Number of survivors at day 5 (Klebsiella pneumoniae; dose per mouse 100): 16
- Number of survivors at day 8 (Klebsiella pneumoniae; dose per mouse 100): 15
- Log2 hemagglutinating titer [2]: 8.39 ± 0.89
- Log2 of the hemagglutinating titer (Ovalbumin): 10.97 ± 1.04
- HSR (diameter of the delayed hypersensitivity reaction) (Ovalbumin): 5 millimeters

Structure (SMILES): CCCCCCCCCCOC(=O)[C@H](CCCCN)NC(=O)CC[C@@H](NC(=O)[C@H](C)NC(=O)[C@@H](C)O[C@H]1[C@H](O)[C@@H](CO)OC(O)[C@@H]1NC(C)=O)C(N)=O (stereo partly drawn) [MDP--L--Lys--decyl--ester, Decyl ester of N-acetyl-muramyl-L-alanyl-D-isoglutaminyl-L-lysine]
- % of protection (Klebsiella pneumoniae; dose per mouse 100): 71%
- Number of survivors at day 3 (Klebsiella pneumoniae; dose per mouse 100): 22
- Number of survivors at day 5 (Klebsiella pneumoniae; dose per mouse 100): 20
- Number of survivors at day 8 (Klebsiella pneumoniae; dose per mouse 100): 20
- lethal dose 50 [1]: higher than 5 mg/kg
- Log2 hemagglutinating titer [2]: 9.64 ± 0.70

Structure (SMILES): CCCCCCCCCCOC(=O)CC[C@@H](NC(=O)[C@H](C)NC(=O)[C@@H](C)O[C@H]1[C@H](O)[C@@H](CO)OC(O)[C@@H]1NC(C)=O)C(N)=O (stereo partly drawn) [MDP--decyl--ester, Decyl ester of N-acetyl-muramyl-L-alanyl-D-isoglutamine]
- Number of survivors at day 3 (Klebsiella pneumoniae; dose per mouse 10): 1
- Number of survivors at day 5 (Klebsiella pneumoniae; dose per mouse 10): 0
- Number of survivors at day 8 (Klebsiella pneumoniae; dose per mouse 10): 0
- % of protection (Klebsiella pneumoniae; dose per mouse 100): 75%
- Number of survivors at day 3 (Klebsiella pneumoniae; dose per mouse 100): 24
- Number of survivors at day 5 (Klebsiella pneumoniae; dose per mouse 100): 21
- Number of survivors at day 8 (Klebsiella pneumoniae; dose per mouse 100): 21
- lethal dose 50 [1]: higher than 5 mg/kg
- Log2 hemagglutinating titer [2]: 8.64 ± 1.31

Structure (SMILES): CCCCOC(=O)CC[C@@H](NC(=O)[C@H](C)NC(=O)[C@@H](C)O[C@H]1[C@H](O)[C@@H](CO)OC(O)[C@@H]1NC(C)=O)C(=O)OC (stereo partly drawn) [MDPA(butyl--ester)OCH3, α-methyl, γ-n-butyl N-acetyl-muramyl-L-alanyl-D-glutamic diester]
- % of protection (Klebsiella pneumoniae; dose per mouse 100): 38%
- Number of survivors at day 3 (Klebsiella pneumoniae; dose per mouse 100): 12
- Number of survivors at day 5 (Klebsiella pneumoniae; dose per mouse 100): 11
- Number of survivors at day 8 (Klebsiella pneumoniae; dose per mouse 100): 9

Structure (SMILES): CCCCCCCCCCOC(=O)CC[C@@H](NC(=O)[C@H](C)NC(=O)[C@@H](C)O[C@H]1[C@H](O)[C@@H](CO)OC(O)[C@@H]1NC(C)=O)C(=O)OC (stereo partly drawn) [MDPA(decyl--ester)OCH3, α-methyl, γ-decyl N-acetyl-muramyl-L-alanyl-D-glutamic diester]
- % of protection (Klebsiella pneumoniae; dose per mouse 100): 44%
- Number of survivors at day 3 (Klebsiella pneumoniae; dose per mouse 100): 13
- Number of survivors at day 5 (Klebsiella pneumoniae; dose per mouse 100): 11
- Number of survivors at day 8 (Klebsiella pneumoniae; dose per mouse 100): 10
